Measured values reported in patent US20060189688A1 (priority 2003, published 2006).

What was measured:
[1] = tested on: human influenza A virus NWS/33, H1N1; type: cell-based
[2] = tested on: virus-specific receptors located on red blood cells; design: species or system human; settings: red blood cells used for the haemagglutination assay
[3] = tested on: human influenza A virus NWS/33, H1N1; type: cell-based; remark: listed apart in the source
[4] = tested on: human influenza A virus NWS/33, H1N1; type: cell-based; remark: listed apart in the source
[5] = tested on: viral haemagglutinin HA antigen on the cellular surface of infected LLC-MK2 cells; type: cell-based, influenza A virus; settings: 24 and 48 hours post infection; treated versus untreated infected LLC-MK2 cells
[6] = tested on: virus-induced polypeptides of A/NWS/33 in LLC-MK2 cells; type: cell-based, influenza A virus; settings: MESNA 20 mg/ml, effect particularly evident at 1, 2, 5, 1.0, 15 mg/ml
[7] = tested on: avian influenza A virus Ulster/73, H7N1; type: cell-based; settings: A/Ulster/73, H7N1 strain

Q: Which “virus production (haemagglutination, presence/absence of mature viral particles)” value [1] does the source give for O=S(=O)([O-])CCS.[Na+] [MESNA, Sodium 2-mercaptoethanesulfonate] here?
A: able to suppress virus production

Q: And the “interference with virus-specific receptors on red blood cells” value [2]?
A: did not interfere

Q: What about the “time of addition up to which MESNA is effective” value [3] of the same compound?
A: ≤ 6 hours post infection

Q: What about the “reversibility of inhibition of the production of viral particles” value [4] of the same compound?
A: irreversible inhibition

Q: And the “haemagglutinin molecules on the surface of infected cells (haemadsorption values)” value [5]?
A: great reduction, if not the absence

Q: What about the “synthesis of virus-induced polypeptides (early and late viral proteins)” value [6] of the same compound?
A: marked reduction

Q: And the “results with avian strain compared with human influenza virus A/NWS/33” value [7]?
A: completely reproducible and absolutely comparable

Q: For O=C([O-])CN(CCN(CC(=O)[O-])CC(=O)[O-])CC(=O)[O-].[Na+].[Na+].[Na+].[Na+] [sodium edetate], which “antiviral action in comparison studies (all experiments repeated)” value [1] is on record?
A: not able to exert an antiviral action
